Values quoted from earlier work in PMC9516332 (Frontiers in Oncology, 2022).
Like-named read-outs stand apart in the source and are kept apart here.

How the values were obtained:
[1] = molecular target: panel of 255 wild-type kinases (Homo sapiens, UniProt O14578); conditions: kinase CRIK, 1 µmol/L single concentration, cited from earlier work
[2] = molecular target: panel of 255 wild-type kinases (Homo sapiens, UniProt P05129); conditions: kinase PKCγ, 1 µmol/L single concentration, cited from earlier work
[3] = molecular target: T1, panel of 255 wild-type kinases (Homo sapiens, UniProt P15735); conditions: kinase PHKG2, 1 µmol/L single concentration, cited from earlier work
T1 sequence (P15735 1-406): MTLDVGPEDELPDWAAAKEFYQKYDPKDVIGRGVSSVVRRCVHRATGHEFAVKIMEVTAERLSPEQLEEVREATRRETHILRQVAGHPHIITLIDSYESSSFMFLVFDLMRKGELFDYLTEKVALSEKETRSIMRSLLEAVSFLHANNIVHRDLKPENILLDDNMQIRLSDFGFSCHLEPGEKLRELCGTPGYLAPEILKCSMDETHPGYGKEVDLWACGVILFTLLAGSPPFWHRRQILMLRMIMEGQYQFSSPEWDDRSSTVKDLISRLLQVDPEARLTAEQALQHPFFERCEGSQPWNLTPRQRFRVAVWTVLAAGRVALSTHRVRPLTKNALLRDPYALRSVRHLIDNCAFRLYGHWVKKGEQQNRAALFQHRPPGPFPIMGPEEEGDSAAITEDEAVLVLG

[4] = molecular target: panel of 255 wild-type kinases (Homo sapiens, UniProt P28482); conditions: kinase Erk2, 1 µmol/L single concentration, cited from earlier work
[5] = molecular target: panel of 255 wild-type kinases (Homo sapiens, UniProt P35916); conditions: kinase FLT4, 1 µmol/L single concentration, cited from earlier work
[6] = molecular target: T2, panel of 255 wild-type kinases (Homo sapiens, UniProt P42681); conditions: kinase TXK, 1 µmol/L single concentration, cited from earlier work
T2 sequence (P42681 1-527): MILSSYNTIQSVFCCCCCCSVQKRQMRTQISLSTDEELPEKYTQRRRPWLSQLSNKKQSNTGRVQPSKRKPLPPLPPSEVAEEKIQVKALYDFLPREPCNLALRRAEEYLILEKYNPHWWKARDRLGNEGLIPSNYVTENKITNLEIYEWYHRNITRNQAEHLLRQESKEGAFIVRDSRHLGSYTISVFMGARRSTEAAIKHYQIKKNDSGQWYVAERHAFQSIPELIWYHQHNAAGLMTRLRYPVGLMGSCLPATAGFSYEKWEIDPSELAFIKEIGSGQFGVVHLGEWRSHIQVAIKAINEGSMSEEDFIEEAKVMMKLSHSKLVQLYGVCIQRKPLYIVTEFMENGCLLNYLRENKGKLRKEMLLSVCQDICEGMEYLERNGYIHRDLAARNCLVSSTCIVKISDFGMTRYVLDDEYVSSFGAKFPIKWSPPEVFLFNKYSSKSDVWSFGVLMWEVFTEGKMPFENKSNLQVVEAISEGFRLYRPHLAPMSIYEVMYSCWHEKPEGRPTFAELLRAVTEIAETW

[7] = molecular target: panel of 255 wild-type kinases (Homo sapiens, UniProt P53355); conditions: kinase DAPK1, 1 µmol/L single concentration, cited from earlier work
[8] = molecular target: panel of 255 wild-type kinases (Homo sapiens, UniProt Q86Z02); conditions: kinase HIPK1, 1 µmol/L single concentration, cited from earlier work
[9] = molecular target: T3, panel of 255 wild-type kinases (Homo sapiens, UniProt Q9NRA0); conditions: kinase SPHK2, 1 µmol/L single concentration, cited from earlier work
T3 sequence (Q9NRA0 1-654): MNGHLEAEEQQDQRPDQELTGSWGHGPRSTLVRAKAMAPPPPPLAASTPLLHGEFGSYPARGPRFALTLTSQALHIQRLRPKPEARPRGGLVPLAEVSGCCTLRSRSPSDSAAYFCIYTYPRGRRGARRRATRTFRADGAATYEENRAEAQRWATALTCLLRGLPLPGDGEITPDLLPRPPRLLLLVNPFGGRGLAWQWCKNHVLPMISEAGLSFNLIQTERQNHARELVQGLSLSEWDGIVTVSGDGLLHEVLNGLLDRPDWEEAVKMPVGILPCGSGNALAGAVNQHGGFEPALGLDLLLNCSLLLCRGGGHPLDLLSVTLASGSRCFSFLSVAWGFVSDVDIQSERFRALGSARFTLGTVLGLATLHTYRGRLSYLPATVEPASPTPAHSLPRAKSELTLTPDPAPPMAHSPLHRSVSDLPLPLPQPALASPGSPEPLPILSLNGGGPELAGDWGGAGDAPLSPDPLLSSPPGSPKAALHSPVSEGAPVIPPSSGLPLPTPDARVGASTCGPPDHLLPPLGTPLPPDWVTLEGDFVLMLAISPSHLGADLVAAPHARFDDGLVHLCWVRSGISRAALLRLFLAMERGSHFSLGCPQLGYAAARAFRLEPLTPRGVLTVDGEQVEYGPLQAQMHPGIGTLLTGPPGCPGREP

[10] = molecular target: panel of 255 wild-type kinases (Homo sapiens, UniProt Q9NYY3); conditions: kinase PLK2, 1 µmol/L single concentration, cited from earlier work
[11] = molecular target: panel of 255 wild-type kinases (Homo sapiens, UniProt Q9P286); conditions: PAK5, 1 µmol/L single concentration, cited from earlier work
[12] = ref DOI: 10.1158/1535-7163.MCT-18-0877
[13] = ref DOI: 10.1371/journal.pone.0092146

Compound	%-inhibition at 1 µmol/L, CRIK [1, 13] [%]	%-inhibition at 1 µmol/L, PKCγ [2, 13] [%]	%-inhibition at 1 µmol/L, PHKG2 [3, 13] [%]	%-inhibition at 1 µmol/L, Erk2 [4, 13] [%]	%-inhibition at 1 µmol/L, FLT4 [5, 13] [%]	%-inhibition at 1 µmol/L, TXK [6, 13] [%]	%-inhibition at 1 µmol/L, DAPK1 [7, 13] [%]	%-inhibition at 1 µmol/L, HIPK1 [8, 13] [%]	%-inhibition at 1 µmol/L, SPHK2 [9, 13] [%]	%-inhibition at 1 µmol/L, PLK2 [10, 13] [%]	%-inhibition, PAK5 [11, 13] [%]	other results
C=CC(=O)Nc1cc(Nc2nccc(-c3cn(C)c4ccccc34)n2)c(OC)cc1N(C)CCN(C)C [osimertinib]	–	–	–	–	–	–	–	–	–	–	–	%-inhibition at 1 µmol/L, CRIK [1, 12]: 7%; %-inhibition at 1 µmol/L, PKCγ [2, 12]: 14%; %-inhibition at 1 µmol/L, PHKG2 [3, 12]: 11%; %-inhibition at 1 µmol/L, Erk2 [4, 12]: -10%; %-inhibition at 1 µmol/L, FLT4 [5, 12]: 40%; %-inhibition at 1 µmol/L, TXK [6, 12]: 82%; %-inhibition at 1 µmol/L, DAPK1 [7, 12]: 29%; %-inhibition at 1 µmol/L, HIPK1 [8, 12]: 34%; %-inhibition at 1 µmol/L, SPHK2 [9, 12]: 15%; %-inhibition at 1 µmol/L, PLK2 [10, 12]: 1.06%; %-inhibition, PAK5 [11, 12]: 6%
CC(=O)Nc1cccc(-n2c(=O)n(C3CC3)c(=O)c3c(Nc4ccc(I)cc4F)n(C)c(=O)c(C)c32)c1 [trametinib]	-4.25	0.381	2.81	-5	1.51	-4.66	-6	-3.71	-14	-1.65	-2.62	–
CCCS(=O)(=O)Nc1ccc(F)c(C(=O)c2c[nH]c3ncc(-c4ccc(Cl)cc4)cc23)c1F [vemurafenib]	-6	-4.39	-4.37	-4.58	24	5	-0.115	-4.72	8	-1.85	-1.23	–
